{"source": "patent US9504676B2", "about": "“Molecules inhibiting a metabolic pathway involving the Syk protein tyrosine kinase and method for identifying said molecules” (CENTRE NATIONAL DE LA RECHERCHE SCIENTIFIQUE, priority 2008, dated 2016)", "tested_on": "BALB/c mice", "test": "IgE-induced passive systemic anaphylaxis (PSA)", "format": "in vivo", "experimental": "Finally, to extend these observations to mast cell functions in vivo, the inventors tested the effects of C-13 on passive systemic (PSA) and cutaneous anaphylaxis (PCA) induced in BALB/c mice by administering DNP-specific IgE molecules followed by intravenous stimulation with DNP-KLH hapten. […] The intensity of systemic anaphylaxis was determined by measuring both the drop in body temperature and the increase in vascular permeability following antigen administration.\n• 1) Chemical products and antibodies. A chemical bank of 3000 molecules (a varied subset) was acquired from ChemBridge, Inc. (San Diego, Calif.). Stocks of solutions of small molecules were prepared at a rate of 10 mM in DMSO (dimethylsulphoxide), except for C-13 (methyl 2-{5-[(3-benzyl-4-oxo-2-thioxo-1,3-thiazolidin-5-ylidene)methyl]-2-furyl}benzoate, ChemBridge ID No. 6197026) prepared in DMF (dimethylformamide). Unless specified otherwise, all the reagents were supplied by Sigma. […] The binding of G4G11 with Syk was assessed by adding the 9E10 monoclonal antibody conjugated with HRP detecting the amino acid sequence EQKLISEEDLN of human c-myc protein located at the C-terminal end of the scFv fragment. To generate Syk mutants, targeted mutagenesis was used on GST:Syk 6-242 protein and the binding of G4G11 with the mutants was assessed in the presence of 5 μM of C-13. • 3) Cells, culture conditions and functional tests. […]"}
{"compound": "COC(=O)c1ccccc1-c1ccc(/C=C2/SC(=S)N(Cc3ccccc3)C2=O)o1", "note": "[Molecule C-13, methyl 2-{5-[(3-benzyl-4-oxo-2-thioxo-1,3-thiazolidin-5-ylidene)methyl]-2-furyl}benzoate]", "values": [{"measurement": "colour of ears and tail (Evans blue extravasation) in PSA", "setting": "oral administration of 130 mg/kg", "value": "light blue colour"}, {"measurement": "hypothermia (drop in body temperature) in PSA", "setting": "single oral dose of 100 mg/kg", "value": "inhibited hypothermia"}]}
